Consider 6 compounds from US11623927B2, “Substituted [1,2,4]triazolo[1,5-a]pyrimidines for stabilizing microtubules” (THE TRUSTEES OF THE UNIVERSITY OF PENNSYLVANIA, priority 2018, dated 2023).

Assay [1] concerns MTs. Conditions: in words; versus vincristine, taxol, colchicine; cited from earlier work.
The subject of a further assay is total α-tubulin. As to the kind of experiment: cell-based MT assay: total α-tubulin by ELISA in cell lysates. Conditions: for Total α-Tubulin: 4 h incubation, ELISA, relative level, average and SD of triplicate; for effect on total tubulin: in words, see FIG. 1 (compound 22, HEK-293 cells, 4 h). How it is done: (§1) The compounds where then evaluated in a cell-based MT assay as described in Kovalevich, Characterization of brain-penetrant pyrimidine-containing molecules with differential microtubule-stabilizing activities developed as potential therapeutic agents for Alzheimer's disease and related tauopathies. J. Pharmacol. Exp. Ther., 2016, 357, 432-50. In summary, acetylated α-tubulin and total α-tubulin levels were determined by ELISA in cell lysates after 4 h of incubation with test compound at either 1 or 10 μM. See, Table 1.

Assay [2] has as its system MTs. The following applies: in words; cited from earlier work.
The next assay concerns acetylated α-tubulin. As to the kind of experiment: cell-based MT assay: acetylated α-tubulin by ELISA in cell lysates. The following applies: for Acetylated α-Tubulin: 4 h incubation, ELISA, relative level, average and SD of triplicate; for relative activity in the cell-based MT assay / shape of dose-response: in words; for relative activity in the cell-based MT assay: comparison among tested compounds; for shape of dose-response: see FIG. 1 (compound 22, HEK-293 cells, 4 h). As to the method: as §1

On to `CNCCCOc1cc(F)c(-c2c(Cl)nc3ncnn3c2N[C@@H](C)C(F)(F)F)c(F)c1` [Cevipabulin (1), Cevipabulin], for which, in the assay on MTs [1], the “competition for binding to MTs” value was “competes with vincristine but not taxol or colchicine”.

Consider `CO[C@H]1C[C@H]2CC[C@@H](C1)N2c1c(-c2c(F)cc(F)cc2F)c(Cl)nc2ncnn12` [Compound 2, reference compound], for which, in the assay with total α-tubulin (1 μM test compound), the “Total α-Tubulin” value was found to be 1.12 ± 0.08. In the assay on MTs [2], the “binding to MTs versus unpolymerized tubulin heterodimers” value is “binds exclusively to MTs and not to unpolymerized tubulin heterodimers”.

Regarding `C[C@H](Nc1c(-c2c(F)cc(OCCCNC(=O)c3ccc(C4(C(F)(F)F)N=N4)cc3)cc2F)c(Cl)nc2ncnn12)C(F)(F)F` [Compound 11, (S)—N-(3-(4-(5-chloro-7-((1,1,1-trifluoropropan-2-yl)amino)-[1,2,4]triazolo[1,5-a]pyrimidin-6-yl)-3,5-difluorophenoxy)propyl)-4-(3-(trifluoromethyl)-3H-diazirin-3-yl)benzamide], the “Total α-Tubulin” value in the assay on total α-tubulin (10 μM test compound) was determined as 0.88 ± 0.05. Moreover, the “Acetylated α-Tubulin” value with acetylated α-tubulin (1 μM test compound) was 1.30 ± 0.28.

For `C[C@H](Nc1c(-c2c(F)cc(F)cc2F)c(Cl)nc2ncnn12)C1(C)N=N1` [Compound 14, (S)-5-chloro-N-(1-(3-methyl-3H-diazirin-3-yl)ethyl)-6-(2,4,6-trifluorophenyl)-[1,2,4]triazolo[1,5-a]pyrimidin-7-amine], the “Total α-Tubulin” value with total α-tubulin (10 μM test compound) was 0.94 ± 0.02.

For the compound `C[C@@H](Nc1c(-c2c(F)cc(OCCCN(C)C)cc2F)c(Cl)nc2ncnn12)C1(C)N=N1` [Compound 21, (R)-5-chloro-6-(4-(3-(dimethylamino)propoxy)-2,6-difluorophenyl)-N-(1-(3-methyl-3H-diazirin-3-yl)ethyl)-[1,2,4]triazolo[1,5-a]pyrimidin-7-amine], in the assay with total α-tubulin, the “effect on total tubulin” value was “profound loss of total tubulin in a dose-dependent manner”. In the assay with acetylated α-tubulin (10 μM test compound), the “Acetylated α-Tubulin” value amounted to 0.93 ± 0.03. Besides, in the assay with acetylated α-tubulin, the “relative activity in the cell-based MT assay” value was “most active” and the shape of dose-response entry is “bell-shaped dose-response”.

As for `CN(C)CCCOc1cc(F)c(-c2c(Cl)nc3ncnn3c2NCC2(C)N=N2)c(F)c1` [Compound 22, 5-chloro-6-(4-(3-(dimethylamino)propoxy)-2,6-difluorophenyl)-N-((3-methyl-3H-diazirin-3-yl)methyl)-[1,2,4]triazolo[1,5-a]pyrimidin-7-amine], in the assay with total α-tubulin, the “effect on total tubulin” value is reported as “profound loss of total tubulin in a dose-dependent manner”. Also, in the assay on acetylated α-tubulin, the “relative activity in the cell-based MT assay” value is recorded as “most active” and the shape of dose-response entry is given as “bell-shaped dose-response”.
